Reference: PMC8752837, “Structural basis of BAK activation in mitochondrial apoptosis initiation” (Nature Communications, 2022)
Read-outs that look alike come from different tables or passages of the source.

Key:
I81A(3) BAK = assay: Liposome permeabilization assay: BH3 peptide activation of I81A(3) BAK receptor; format: biochemical, human; conditions: 50 nM mutant BAK; Suppl. Fig. 4f
Method: We performed liposome permeabilization assays as previously described[43]-[46]. […] We mixed the lipid film in ANTS/DPX solution by vortexing and sonication (~15 min) followed by extrusion through polycarbonate membrane of 2 μm pore size (Avanti Polar lipids) to generate homogenous large unilamellar vesicles (LUVs). We separated LUVs from free ANTS/DPX by S500 size exclusion chromatography and stored them at 4 °C in the dark. We prepared peptide and protein dilutions in 96-well black flat bottom plates (Costar) kept on ice. […] We quantified liposome permabilization by integrating area under curve (AUC) of normalized traces based on the Simpson's equation, and analyzed that data in Excel and GraphPad Prism. AUC measurements reflect the kinetic and extent of liposome permeabilization and provide quantitative means for comparison between different experimental conditions (e.g., BAK mutants with gross or partial variation in activity). Variability in permeabilization of different liposomes is common and our analyses compare among conditions investigated with the same liposomes. Although the absolute permeabilization values may differ, the trends for the same conditions are always very similar between different liposomes.

WT tevBAK = target: T1, WT tevBAK (Homo sapiens, UniProt Q16611); assay: Isothermal titration calorimetry; format: binding; conditions: 25 °C; single site binding model
T1 construct: To generate tevBAK (residues 22–186), we cleaved off the histidine tag with TEV protease; His tag (vector pNIC28-Bsa4) (N, cleaved yes); made in house; host or cells: E. coli T7 Express pLac I/Y
T1 sequence (Q16611 22-186): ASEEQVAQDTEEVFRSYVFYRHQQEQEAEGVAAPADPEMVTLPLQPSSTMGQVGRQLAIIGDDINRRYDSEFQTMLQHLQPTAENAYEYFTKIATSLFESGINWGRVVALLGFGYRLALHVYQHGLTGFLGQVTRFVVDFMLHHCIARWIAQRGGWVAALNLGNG
Method: Protein samples were exchanged into 20 mM HEPES, 100 mM NaCl and 1 mM TCEP prior to the experiment. Titrations were performed by first injecting 0.5 μl of 250 or 500 µM BID BH3 peptides into a solution of 20 or 50 µM BAK followed by additional 2 μl injections. […] Results were analyzed using Origin software (OriginLab) provided by MicroCal. Binding constants (KD) and thermodynamic parameters were calculated from the average of two or three individual titrations by fitting the data to a single site binding model using a nonlinear least-squares fitting algorithm.

GST-BAK = target: T2, GST-BAK (Homo sapiens, UniProt Q16611); assay: Competitive fluorescence polarization assay (displacement of BID BH3 SAHB-F); format: binding; conditions: competitive FP
T2 construct: made in house
T2 sequence (Q16611 1-211): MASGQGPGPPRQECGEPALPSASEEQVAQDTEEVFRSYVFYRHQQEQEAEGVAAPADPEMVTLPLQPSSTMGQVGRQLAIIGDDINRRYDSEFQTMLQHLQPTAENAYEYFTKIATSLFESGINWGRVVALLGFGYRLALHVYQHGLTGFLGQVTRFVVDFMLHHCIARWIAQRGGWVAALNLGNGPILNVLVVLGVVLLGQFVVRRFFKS
Description: We also tested the monosubstituted peptides in competitive fluorescence polarization (FP) binding assays, which measure displacement from GST-BAK of BID BH3 stabilized alpha helix of BCL-2 proteins (SAHB) C-terminally tagged with fluorescein and thus informs on peptide binding affinity.
We carried out fluorescence polarization assays, measuring the displacement of the fluorescent peptide BID BH3 SAHB-F from GST-BAK, in 384-well Greiner black polystyrene plates with flat bottom (Sigma-Aldrich). Master mix consisted of 50 mM Tris-HCl pH 7.5, 50 mM KCl, 0.1 mg/mL BSA, 2 mM DTT, 0.005% Tween-20, 10 nM BID BH3 SAHB-F, and 1 µM GST-BAK. We pin transferred peptides using Biomek FX (Beckman Coulter Life Sciences, IN) to achieve final concentration of 500−0.2 µM in 20 µL final volume. We gently centrifuged plates to remove air bubbles for 1 min at 1000 rpm, and incubated them for 60 min at RT. […] Free peptide controls in each plate consisted of only BID BH3 SAHB-F and bound peptide controls containing BID BH3 SAHB-F + GST-BAK. We derived Z’-values using the equation [1 − 3(stdev^L + stdev^H)]/(average^H − average^L), where L is the free peptide control and H is the bound peptide control. […] We processed and visualized data using the software Robust Investigation of Screening Experiments (RISE) developed in house in the Pipeline Pilot platform (Accelrys, v.8.5.0). We performed at least three independent dose-response experiments for each peptide. We estimated IC50 values in RISE and GraphPad Prism v.8.0a.

Human BAK-∆TM-His6 (BAK) = target: T3, Human BAK-∆TM-His6 (BAK) (Homo sapiens, UniProt Q16611); conditions: ref Moldoveanu et al NSMB (2013) 20:589; cited from earlier work
T3 construct: C-terminus truncated recombinant human BAK containing C-terminal 6× histidine tag (MEAS-BAK); made in house; host or cells: E. coli T7 Express pLac I/Y
T3 sequence (Q16611 1-186 limits assumed): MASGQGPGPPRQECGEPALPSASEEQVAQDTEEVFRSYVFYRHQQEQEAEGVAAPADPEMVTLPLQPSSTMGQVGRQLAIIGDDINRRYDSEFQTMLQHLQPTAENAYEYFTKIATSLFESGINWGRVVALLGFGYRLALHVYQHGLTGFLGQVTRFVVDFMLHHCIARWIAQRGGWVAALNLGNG
Description: page 33: helix 1 to be important, and the idea that this could be achieved through somewhat different molecular interactions is neither surprising nor novel. We appreciate the reviewer’s viewpoint but respectfully disagree. We clarify the distinction between W(3)W(5) BID BH3 and BIM-h3Pc-RT inactivated complexes by explaining that stabilization of helix 1 is through indirect contacts in the former (allosteric) and through direct contact in the latter “glue-like” complex. This distinction is now discussed in the highlighted region on pg. 16 being key for the design of small molecule BH3 mimetic ...

Compound	liposome permeabilization by 50 nM I81A(3) BAK receptor (I81A(3) BAK)	ITC -T∆S (WT tevBAK) [kcal/mol]	ITC ∆G (WT tevBAK) [kcal/mol]	ITC ∆H (WT tevBAK) [kcal/mol]	IC50 (GST-BAK; Experiment-1) [µM]	IC50 (GST-BAK; Experiment-2) [µM]	IC50 (GST-BAK; Experiment-3) [µM]	IC50 (GST-BAK; Experiment-4) [µM]	IC50 (GST-BAK; Experiment-5) [µM]	IC50 (GST-BAK; Experiment-6) [µM]	IC50 (GST-BAK; Experiment-7) [µM]	IC50 (GST-BAK; Experiment-9) [µM]	IC50 (GST-BAK; mean of the experiments (replicated 4-9 times), read-out: IC50 Mean) [µM]	fold less potent than activated full-length BID (N/C BID) (Human BAK-∆TM-His6 (BAK))
CC[C@H](C)[C@H](NC(=O)[C@H](C)NC(=O)[C@H](CC(C)C)NC(=O)[C@H](CCC(N)=O)NC(=O)[C@H](CCCNC(=N)N)NC(=O)CNC(=O)[C@@H](NC(=O)[C@H](CCC(N)=O)NC(=O)CNC(=O)[C@H](CCSC)NC(=O)[C@@H](NC(=O)[C@H](CO)NC(=O)[C@H](CO)NC(C)=O)[C@@H](C)O)C(C)C)C(=O)N[C@H](C(=O)NCC(=O)N[C@@H](CC(=O)O)C(=O)N[C@@H](CC(=O)O)C(=O)N[C@H](C(=O)N[C@@H](CC(N)=O)C(=O)N[C@@H](CCCNC(=N)N)C(=O)N[C@@H](CCCNC(=N)N)C(=O)N[C@@H](Cc1ccc(O)cc1)C(N)=O)[C@@H](C)CC)[C@@H](C)CC [WT BAK BH3]	neither peptide ligands could promote liposome permeabilization	–	–	–	–	–	–	–	–	–	–	–	–	–
CC[C@H](C)[C@H](NC(=O)[C@H](CO)NC(=O)[C@H](CCCNC(=N)N)NC(=O)[C@H](CC(=O)O)NC(=O)[C@H](CCSC)NC(=O)[C@H](CO)NC(=O)[C@H](CC(=O)O)NC(=O)CNC(=O)[C@@H](NC(=O)[C@H](CCC(N)=O)NC(=O)[C@H](C)NC(=O)[C@H](CC(C)C)NC(=O)[C@H](Cc1c[nH]cn1)NC(=O)[C@H](CCCNC(=N)N)NC(=O)[C@H](C)NC(=O)[C@@H](NC(=O)[C@H](CC(N)=O)NC(=O)[C@H](CCCNC(=N)N)NC(=O)[C@@H](NC(=O)[C@@H](NC(=O)[C@H](CC(=O)O)NC(=O)[C@H](CCC(=O)O)NC(C)=O)[C@@H](C)CC)[C@@H](C)CC)[C@@H](C)CC)C(C)C)C(N)=O [WT BID BH3, reference compound]	neither peptide ligands could promote liposome permeabilization	0.41 ± 0.11	-6.34 ± 0.04	-6.75 ± 0.07	12.73	6.926	15.45	8.804	11	9.271	11.57	22.17	12.2	~ 100 x
